{
  "source": "paper PMC6789442",
  "about": "“Unraveling Hepcidin Plasma Protein Binding: Evidence from Peritoneal Equilibration Testing” (Pharmaceuticals, 2019)",
  "key": {"[1]": {"experiment": "Solute concentration in peritoneal dialysate at 1 h dwell", "experimental": "(§1) All were centrifuged at 2000 g for 10 min.\n(§2) Measurements of urea, creatinine, and IgG were performed on a Cobas C8000 random access analyzer (Roche Diagnostics, Basel, Switzerland).\n(§3) This MS-based assay determines total hepcidin (i.e., the sum of bound and unbound fraction). Peptide spectra were generated on a Microflex LT […] laser desorption/ionisation TOF MS platform (Bruker Daltonics, Hamburg, Germany). Hepcidin concentrations were expressed as nmol/L. The lower limit of quantification of this method was 0.5 nM.\nTestosterone and cortisol in peritoneal dialysate were analyzed by LC-MS/MS after solid-phase extraction. Sample preparation consisted of internal standard addition [13C3]-testosterone (Isoscience, Ambler, PA, USA) and […] (Isoscience) to 1000 µL dialysate and solid phase extraction (SPE) using Oasis® MCX 1cc cartridges (Waters Corp, Milford, MA, USA).\nColumns were pre-equilibrated with 1 mL MeOH:IPA (95:5) and subsequently washed with 1 mL H2O. After application of the sample, columns were washed with 1 mL H2O:NH4OH (95:5) and 1 mL MeOH:H2O (20/80) + 2% HCOOH. The 300 µL eluate (MeOH) was dried under a stream of N2 gas, reconstituted in MeOH:H2O (30:70). A nine-point calibration series was used (using testosterone and cortisol both from Steraloids). Calibrators, quality controls, and samples (reconstituted in 100 µL) were injected (10 µL) into an Agilent Technologies 1290 Infinity VL UHPLC-system (Agilent Technologies, Santa Clara, USA), equipped with a BEH C18 (1.7 μm 2.1 X 50 mm) analytical column (Waters Corp., Milford, MA, USA) at 60 °C. Mobile phase A (MeOH/H2O (20:80) + 2 mM NH4CH3COO + 0.1% HCOOH) and B (MeOH/H2O (98:2) + 2 mM NH4CH3COO + 0.1% HCOOH) were run in a gradient (0.4 mL/min). The gradient program was as follows: Start gradient A:B (70:30) for 2.5 min; followed by a gradient in 2 min to A:B (60:40) and subsequent 2.5 min A:B (35:65). For column washing, a gradient 0.5 min A:B (98:2) was established to remain such for 0.5 min. The column was re-equilibrated to A:B (70:30) in 0.5 min and remained such for 0.5 min. […] An Agilent 6490 tandem mass spectrometer (Agilent Technologies, Santa Clara, CA, USA) was operated in the electrospray positive ion mode. Operating conditions were as follows: Capillary voltage 3.5 kV, fragmentor voltage 380 V, sheath gas temperature 350 °C, and gas temperature 150 °C. The collision energy was optimized between 25 and 34 eV for all solutes and Nitrogen was used as collision gas. Two mass transitions were monitored for each analyte and the internal standards. The first transition was used for quantification, the second for confirmation. The transitions (Q1 > Q3) were m/z 289 > 97 and m/z 289 > 109 for testosterone; m/z 292 > 100 and m/z 292 > 112 for [13C3]-testosterone; m/z 363 > 121 and m/z 363 > 97 for cortisol; m/z 367 > 121 and m/z 367 > 97 for [3H4]-cortisol. Total run time was 9 min.\nFor both total and free cortisol PC calculations, we used total cortisol measurements in dialysate, since we assume that all cortisol present in dialysate after 1 h of dwell time is free considering the large MW of its main binding protein corticosteroid binding globulin (MW 52 kDa)."}, "[2]": {"experiment": "Solute concentration in blood (plasma/serum) before dialysis", "experimental": "as §1, §2, §3\nCortisol and testosterone were analyzed by Liquid Chromatography-Mass Spectrometry (LC-MS/MS) after protein precipitation and solid-phase extraction. Internal standard [^2H4]-cortisol and [^13C3]-testosterone (Isoscience, Ambler, PA, USA) was added to 100 µL serum. Subsequently, 300 µL acetonitrile with 0.1% formic acid was added for protein precipitation and 300 µL H2O was added to 200 µL supernatant followed by solid phase extraction (Oasis HLB 1cc, Waters, Milford, MA, USA). The eluate (methanol:isopropanol 95:5) was dried under a stream of N2 gas, reconstituted in methanol:water (3:7) and injected (10 µL) into an Agilent Technologies 1290 Infinity Ultra High Performance Liquid Chromatography (UHPLC)-system (Agilent Technologies, Agilent, Santa Clara, CA, USA) equipped with a BEH C18 (1.7 μm 2.1 × 50 mm) analytical column (Waters Corp.) at 60 °C. Mobile phase A (methanol:water 20:80 + 2 mM NH4CH3COO + 0.1% formic acid) and B (methanol:water 98:2 + 2 mM NH4CH3COO + 0.1% formic acid) were run in a gradient (0.4 mL/min). Start gradient 70:30 A:B for 2.5 min; then to 40:60 A:B in 3.5 min; followed by a gradient in 0.5 min to 2:98 to remain such for 0.5 min and thereafter to 70:30 A:B in 0.5 min and remain such for 0.5 min. […] Total run time was 8 min. A 9-point calibration curve was used (cortisol and testosterone, Steraloids). An Agilent 6490 tandem mass spectrometer (Agilent Technologies, Agilent, Santa Clara, CA, USA) was operated in the electrospray positive ion mode, with a capillary voltage 3.5 kV, fragmentor voltage 380 V, sheath gas temperature 350 °C, and gas temperature 150 °C with N2 collision gas. Two transitions (qualitative and quantitative) were monitored. Transitions (Q1 > Q3) were m/z 363.4 > 97.1 (34 V) and m/z 363.4 > 121.1 (25 V) for cortisol; m/z 367.4 > 97.1 (34 V) and m/z 367.4 > 121.1 (25 V) for [2H4]-cortisol. m/z 289.2 > 109.1 […] and m/z 289.2 > 97.1 […] for testosterone; m/z 292.3 > 112.1 […] and m/z 292.3 > 100.1 […] for 13C3-testosterone. Dwell time was 100 ms and 50 ms for cortisol and testosterone, respectively."}, "[3]": {"conditions": "in vivo", "procedure": "(§4) Dialysate sampling was performed at 1 h of dwell time (t = 1 h), since peritoneal transport of solutes with a low MW (<200 Da) will decrease over a longer period of time due to saturation of the dialysate [22]. For sampling, all dialysate fluid was collected in a plastic (PVC) bag and mixed ex vivo before a sample was taken, to assure dialysate samples were representative for the fluid in the peritoneal cavity. Thereafter, the remaining dialysate was returned into the peritoneal cavity. […] Blood samples were drawn prior to dialysis (t = 0 h) in both heparin plasma and serum tubes. All were centrifuged at 2000 g for 10 min. Blood and dialysate samples were aliquoted and immediately stored at −80 °C until measurement.\n(§5) Measurement results for solutes below the lower limit of detection (LLOD) were excluded."}, "plasma proteins": {"system": "plasma proteins", "experiment": "Plasma protein binding percentage calculated from measured vs expected peritoneal clearance (MW-clearance curve)", "format": "in vivo, human", "conditions": "(1 − measured PC / expected PC) × 100%; expected PC from Log10(PC) = 4.5744 – 0.05063 × cube root MW; ESRD patients in PET; mean (±sd)", "from_the_text": "Logarithmic transformation was used for PC data before statistical analysis, as the data was not normally distributed. In addition, we used a cube root scaling for MW, since transport rates are related to size and thus radius (r), and considering volume as a three-dimensional characteristic of the radius (r^3). The curve describing the relation between MW and PC of all analytes was estimated with a linear mixed model using a random slope and random intercept. The expected PC of each analyte could be calculated using its MW and the equation of the curve. We calculated the binding percentage as:Binding percentage (%) = (1 − (Measured PC)/(Expected PC)) × 100%.(3)\nIn this equation, the measured PC divided by the expected PC represents the free hormone fraction. The strength of a linear association between the clearances of two analytes was measured using Spearman’s correlation coefficient."}, "[4]": {"conditions": "rapidly excreted by the kidneys; cited from earlier work", "from_the_text": "Our finding that hepcidin is not predominantly bound is in line with other literature, in which a merely freely circulating hepcidin was observed using gel chromatography on human serum samples, followed by Liquid Chromatography-Mass Spectrometry (LC-MS/MS). In fact, other peptide hormones such as human growth hormone, insulin [28], and cardiac natriuretic hormones circulate freely, since peptide hormones are often water-soluble and can, therefore, easily be transported via the cardiovascular system without requiring carrier proteins. In addition, hepcidin is ..."}, "[5]": {"experiment": "Peritoneal clearance from peritoneal equilibration test (PET)", "conditions": "ESRD patients in PET; for Peritoneal Clearance t = 0–1 h Mean (sd): [Dialysate] t = 1 h / [Blood] t = 0 h × dialysate volume / 60 min, total blood concentration, N 14, 13 testosterone, 10 cortisol, 13 hepcidin", "procedure": "as §4, §5"}, "[6]": {"conditions": "ESRD patients, serum at t = 0 h, equilibrium dialysis 5 h, 37 °C, 5 kDa membrane, HEPES buffer pH 7.40, LC-MS/MS, N = 9", "procedure": "Serum was dialyzed in a multi-cell equilibrium dialyzer using Teflon dialyzing cells consisting of two identical parts between which a flat membrane is fitted (Dianorm-Geräte). The dialysis cells are incubated in a water bath with constant agitation by a rotating apparatus and temperature during dialysis was maintained at 37 ± 0.5 °C, by constant monitoring with an immersion thermostatic system (Tinytag TGP-4020 logger and PB5001-1M5 sonde; Gemini data loggers). The dialysis membranes were prepared from Dianorm (Diachema dialysis membranes 10.14) with a cut-off of 5 kDa. Equilibrium dialysis was performed for 5 h with 180 µL serum against 180 µL HEPES buffer; while rotating the dialysis apparatus at 20 rpm."}, "[7]": {"conditions": "peritoneal dialysate at 1 h dwell, 3.86% glucose solution, ESRD patients, total measurement, mean (sd), N 13 testosterone, 10 cortisol, 13 hepcidin"}},
  "note": "Where two headings read alike, the source gives them in different places.",
  "data": [
    {"compound": "CN1CC(=O)NC1=N", "note": "[Creatinine, creatinine]", "values": [
      {"measurement": "[Dialysate] t = 1 h Mean (sd)", "setting": "[1]; in vivo", "result": "296.9 (119.9) µmol/L"},
      {"measurement": "[Plasma] t = 0 h Mean (sd)", "setting": "[2]; in vivo", "result": "542.0 (172.6) µmol/L"},
      {"measurement": "Peritoneal Clearance t = 0–1 h Mean (sd)", "setting": "[3]", "result": "21,499.6 (5861.6) µL/min"}
    ]},
    {"compound": "hepcidin", "values": [
      {"measurement": "Binding percentage (protein-bound fraction)", "setting": "plasma proteins", "result": "40% (±23%)"},
      {"measurement": "[Dialysate] t = 1 h Mean (sd)", "setting": "[1]; in vivo", "result": "1.2 (1.1) nmol/L"},
      {"measurement": "half-life", "setting": "[4]", "result": "several hours"},
      {"measurement": "[Plasma] t = 0 h Mean (sd), total concentration", "setting": "[2]; in vivo", "result": "10.6 (9.1) nmol/L"},
      {"measurement": "Peritoneal Clearance t = 0–1 h Mean (sd)", "setting": "[5]", "result": "4337.5 (1713.1) µL/min"}
    ]},
    {"compound": "C[C@]12CC[C@H]3[C@@H](CCC4=CC(=O)CC[C@@]43C)[C@@H]1CC[C@@H]2O", "note": "[Testosterone, testosterone]", "values": [
      {"measurement": "Binding percentage (protein-bound fraction)", "setting": "plasma proteins", "result": "97% (±1.5%)"},
      {"measurement": "[Dialysate] t = 1 h Mean (sd)", "setting": "[1]; [7]", "result": "0.1 (0.1) nmol/L"},
      {"measurement": "[Plasma] t = 0 h Mean (sd), total concentration", "setting": "[2]; ESRD patients undergoing PET, blood at t = 0 h, total = free and protein-bound, cortisol/testosterone LC-MS/MS, hepcidin WCX-TOF MS, mean (sd), N 13 testosterone, 10 cortisol, 13 hepcidin", "result": "8.6 (7.3) nmol/L"},
      {"measurement": "Peritoneal Clearance t = 0–1 h Mean (sd)", "setting": "[5]", "result": "507.7 (260.5) µL/min"}
    ]},
    {"compound": "NC(N)=O", "note": "[Urea, urea]", "values": [
      {"measurement": "[Dialysate] t = 1 h Mean (sd)", "setting": "[1]; peritoneal dialysate at 1 h dwell, 3.86% glucose solution, ESRD patients, mean (sd), N = 14", "result": "15.0 (6.1) mmol/L"},
      {"measurement": "[Plasma] t = 0 h Mean (sd)", "setting": "[2]; ESRD patients on peritoneal dialysis undergoing PET, blood drawn before dialysis (t = 0 h), endogenous solute, mean (sd), N = 14", "result": "21.5 (6.6) mmol/L"},
      {"measurement": "Peritoneal Clearance t = 0–1 h Mean (sd)", "setting": "[5]", "result": "26,959.1 (6211.8) µL/min"}
    ]},
    {"compound": "C[C@]12CCC(=O)C=C1CC[C@@H]1[C@@H]2[C@@H](O)C[C@@]2(C)[C@H]1CC[C@]2(O)C(=O)CO", "note": "[Cortisol, cortisol]", "values": [
      {"measurement": "Binding percentage (protein-bound fraction)", "setting": "plasma proteins", "result": "91% (±3%)"},
      {"measurement": "[Dialysate] t = 1 h Mean (sd)", "setting": "[1]; [7]", "result": "8.4 (5.8) nmol/L"},
      {"measurement": "[Dialysate] t = 1 h Mean (sd), row of free cortisol", "setting": "[1]; total cortisol measured in dialysate at 1 h, assumed to be all free, used for free cortisol clearance, mean (sd), N = 9", "result": "8.4 (5.8) nmol/L"},
      {"measurement": "[Plasma] t = 0 h Mean (sd), total concentration", "setting": "[2]; in vivo", "result": "229.1 (134.4) nmol/L"},
      {"measurement": "Peritoneal Clearance t = 0–1 h Mean (sd)", "setting": "[3]", "result": "1439.0 (490.8) µL/min"},
      {"measurement": "[Plasma] t = 0 h Mean (sd), free cortisol", "setting": "[6]", "result": "12.7 (7.7) nmol/L"},
      {"measurement": "Peritoneal Clearance t = 0–1 h Mean (sd), free cortisol", "setting": "[5]; calculated with free serum cortisol at t = 0 h and total cortisol in dialysate at 1 h, N = 9", "result": "25,030.8 (8123.9) µL/min"}
    ]}
  ]
}
